{"source": "patent US20240287614A1", "about": "“RECIPROCAL MICRORNA-MRNA PAIRINGS AS BIOMARKERS AND THERAPEUTIC TARGETS IN CANCER” (UNIVERSITY OF MARYLAND, EASTERN SHORE, priority 2023, published 2024)", "key": {"mTOR and pmTOR [1]": {"tested_on": "mTOR and pmTOR", "assay": "Immunofluorescence of mTOR and pmTOR in prostate cancer cell lines transfected with NS or miR-99b-5p mimic", "assay_type": "cell-based, human", "conditions": "vs NS", "description": "(§1) The human cell lines used in the study included: 22Rv1, LNCaP, PC-3, RC77 T/E and MDA PCa 2b (prostate cancer cell lines), MDA MB 231 and MCF-7 (breast cancer cell lines), HT-29 and SW620 (colon cancer cell lines), A549 and H1299 (lung cancer cell lines). RWPE-1, HMEC, FHC, and BEAS-2B were used as normal control cell lines for prostate, breast, colon, and lung, respectively. Note that 22Rv1 is a castration-resistant […] prostate cancer cell line, while LNCaP and PC-3 were derived from lymph node and bone metastasis of […] prostate cancer patients, respectively. RC77 T/E was derived from a primary prostate cancer patient, and MDA PCa 2b was derived from bone metastasis of an prostate cancer patient. The cell lines described were used as in vitro cell models to evaluate the functional roles of miR-99b-5p/MTOR pairing in the […] prostate cancer, African American prostate cancer and solid tumors in general. The cells were grown in specific cell culture media described as follows: 22Rv1, LNCaP, MCF-7 and H1299 were cultured in RPMI-1640 with 10% fetal bovine serum (FBS), PC-3, A549 and FHC were cultured in DMEM with 10% FBS, RC77 T/E was cultured in Keratinocyte SFM with human recombinant epidermal growth factor (EGF) and bovine pituitary extract (BPE), MDA PCa 2b were cultured in BRFF-HPC1 with 20% FBS, HT-29 was cultured in McCory's with 10% FBS, SW620 and MDA MB 231 were cultured in L-15 with 10% FBS, HMEC was cultured in mammary epithelial cell basal medium with supplements, and BEAS-2B was cultured in BEBM base medium with BEBM supplement kit. Cells were maintained at 37° C. in a 5% CO2 incubator.\n(§2) The 22Rv1, LNCaP, PC-3, MDA PCa 2b, MCF7, H1299, A549, HT-29, SW620, MDA MB-231, HMEC and BEAS-2B cells were seeded at a density of 3×10^5 cells/well in 6-well plates. RC77 T/E cells were seeded at a density of 5×10^5 cells/well in 6-well plates. The cells were grown for 24 h and then transfected with nonsense/scrambled RNA (NS) and miR-99b-5p mimic (Ambion) using DharmaFECT4 transfection reagent (Dharmacon). After 24 h, fresh media were applied to replace the transfection reagent-containing media, then the cells were incubated for an additional 24 h.\n(§3) In this process, 4×10^4 cells were seeded on cover slip and allowed to adhere for 24 h in 5% CO2 incubator at 37° C. All the cells were subjected to immunofluorescence assays 48 h following transfection. Briefly, cells were washed with 1×PBS, fixed in 4% paraformaldehyde, and permeabilized with 0.1% Triton X-100. Cells were then blocked for 1 h with 2% BSA in 1×PBS. […] All labeled and/or prepared cells mounted on glass slides and were visualized by fluorescence microscopy (Olympus). […]"}, "mTOR and pmTOR [2]": {"tested_on": "mTOR and pmTOR", "assay": "Immunofluorescence of mTOR and pmTOR in colon, breast and lung cancer cell lines", "assay_type": "cell-based, human", "description": "as §1, §2, §3"}, "[3]": {"conditions": "22Rv1, LNCaP, PC-3, RC77 T/E, MDA PCa 2b, 48 h following transfection"}, "[4]": {"conditions": "all European American and African American prostate cancer cell lines"}, "[5]": {"conditions": "HT-29, SW620, MDA MB 231, MCF-7, A549, H1299, miR-99b-5p transfected vs NS transfected"}, "[6]": {"conditions": "six colon, breast, lung cancer cell lines, mimic vs NS"}}}
{"substance": "miR-99b-5p mimic: miRNA mimic of miR-99b-5p (SEQ ID NO: 2, CACCCGUAGAACCGACCUUGCG), purchased from Ambion (listed as RNA, chemistry not given here; listed as Homo sapiens)", "values": [{"measurement": "pmTOR signals (immunofluorescence)", "setting": "mTOR and pmTOR [1]; [3]", "result": "generalized reduction"}, {"measurement": "total mTOR signals (immunofluorescence)", "setting": "mTOR and pmTOR [1]; [3]", "result": "generalized reduction"}, {"measurement": "cytoplasmic pmTOR signals (immunofluorescence quantification)", "setting": "mTOR and pmTOR [1]; [4]", "result": "increased"}, {"measurement": "nuclear pmTOR signals (immunofluorescence quantification)", "setting": "mTOR and pmTOR [1]; [4]", "result": "reduced significantly"}, {"measurement": "mTOR levels (immunofluorescence)", "setting": "mTOR and pmTOR [2]; [5]", "result": "generalized reduction"}, {"measurement": "pmTOR levels (immunofluorescence)", "setting": "mTOR and pmTOR [2]; [5]", "result": "generalized reduction"}, {"measurement": "cytoplasmic mTOR/nuclear mTOR ratios (immunofluorescence)", "setting": "mTOR and pmTOR [2]; [6]", "result": "elevated"}, {"measurement": "cytoplasmic pmTOR/nuclear pmTOR ratios (immunofluorescence)", "setting": "mTOR and pmTOR [2]; [6]", "result": "elevated"}]}
